From patent publication US9708334B2, “Substituted 2,4,5,6-tetrahydropyrrolo[3,4-c]pyrazole and 4,5,6,7-tetrahydro-2H-pyrazolo[4,3-c]pyridine compounds as GlyT1 inhibitors” (DART NEUROSCIENCE (CAYMAN) LTD., priority 2014, dated 2017)

Target: T1, GlyT1 (Homo sapiens, UniProt P48067)
T1 construct: expressed in transfected cells
T1 sequence (P48067 1-706): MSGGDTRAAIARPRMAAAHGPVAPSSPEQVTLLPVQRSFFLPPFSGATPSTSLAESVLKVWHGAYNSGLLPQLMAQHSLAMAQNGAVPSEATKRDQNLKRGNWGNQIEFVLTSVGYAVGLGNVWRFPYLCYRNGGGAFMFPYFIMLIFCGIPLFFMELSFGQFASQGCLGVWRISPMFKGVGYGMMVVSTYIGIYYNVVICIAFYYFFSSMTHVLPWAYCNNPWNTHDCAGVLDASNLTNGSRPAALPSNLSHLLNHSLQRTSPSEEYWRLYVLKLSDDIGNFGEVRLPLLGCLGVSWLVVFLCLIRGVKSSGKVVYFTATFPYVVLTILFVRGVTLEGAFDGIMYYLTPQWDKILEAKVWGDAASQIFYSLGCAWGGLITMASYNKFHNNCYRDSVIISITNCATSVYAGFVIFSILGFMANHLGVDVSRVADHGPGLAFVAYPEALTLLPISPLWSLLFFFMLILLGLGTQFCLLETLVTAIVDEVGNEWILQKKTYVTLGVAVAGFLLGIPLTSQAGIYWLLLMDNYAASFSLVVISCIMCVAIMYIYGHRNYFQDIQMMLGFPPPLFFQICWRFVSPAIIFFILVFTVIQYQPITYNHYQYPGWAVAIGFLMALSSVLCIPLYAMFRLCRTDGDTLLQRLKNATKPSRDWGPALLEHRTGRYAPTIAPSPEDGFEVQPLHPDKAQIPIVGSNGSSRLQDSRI
Assay: Glycine Transporter 1 (GlyT1) uptake assay, scintillation proximity assay of [14C]-glycine uptake
Type: cell-based
Details: SPA, four parameter logistic fit, read-out: GlyT1 (pIC50) (converted)
Experimental: Glycine Transporter 1 (GlyT1) Uptake Assay
Plates were then read on a MicroBeta plate counter (Perkin Elmer). Dose-response data for tested compounds were analyzed and curves were fit using a four parameter logistic fit to determine IC50 values. […]

IC50 | SMILES
< 100 nM | CC(C)COc1ccc(S(C)(=O)=O)cc1C(=O)N1Cc2cn(-c3cccc(C(F)(F)F)c3)nc2C1 [Example 53, 5-[5-Methanesulfonyl-2-(2-methylpropoxy)benzoyl]-2-[3-(trifluoromethyl)phenyl]-2H 4H 5H 6H-pyrrolo[3,4-c]pyrazole]
< 100 nM | CS(=O)(=O)c1ccc(N2CCC(F)(F)CC2)c(C(=O)N2Cc3cn(-c4ccccc4)nc3C2)c1 [Example 54, 4 4-Difluoro-1-(4-methanesulfonyl-2-{2-phenyl-2H 4H 5H 6H-pyrrolo[3,4-c]pyrazole-5-carbonyl}phenyl)piperidine]
< 100 nM | CS(=O)(=O)c1ccc(N2CCC(F)(F)CC2)c(C(=O)N2Cc3cn(-c4cccc(C(F)(F)F)c4)nc3C2)c1 [Example 55, 4 4-Difluoro-1-(4-methanesulfonyl-2-{2-[3-(trifluoromethyl)phenyl]-2H 4H 5H 6H-pyrrolo[3,4-e]pyrazole-5-carbonyl}phenyl)piperidine]
< 100 nM | CS(=O)(=O)c1ccc(N2CCC(F)(F)CC2)c(C(=O)N2Cc3cn(-c4ccc(F)cc4)nc3C2)c1 [Example 56, 4 4-Difluoro-1-{2-[2-(4-fluorophenyl)-2H 4H 5H 6H-pyrrolo[3,4-c]pyrazole-5-carbonyl]-4-methanesulfonylphenyl}piperidine]
< 100 nM | Cc1c(F)ccc(-n2cc3c(n2)CN(C(=O)c2cc(S(C)(=O)=O)ccc2O[C@@H](C)C(F)(F)F)C3)c1F [Example 58, 2-(2 4-Difluoro-3-methylphenyl)-5-(5-methanesulfonyl-2-{[(2S)-1 1 1-trifluoropropan-2-yl]oxy}benzoyl)-2H 4H 5H 6H-pyrrolo[3,4-c]pyrazole]
< 100 nM | C[C@H](Oc1ccc(S(C)(=O)=O)cc1C(=O)N1Cc2cn(-c3cc(Cl)ccc3F)nc2C1)C(F)(F)F [Example 59, 2-(5-Chloro-2-fluorophenyl)-5-(5-methanesulfonyl-2-{[(2S)-1 1 1-trifluoropropan-2-yl]oxy}benzoyl)-2H 4H 5H 6H-pyrrolo[3,4-c]pyrazole]
< 100 nM | CC(C)Oc1ccc(S(C)(=O)=O)cc1C(=O)N1Cc2cn(-c3ccccc3F)nc2C1 [Example 60, 2-(2-Fluorophenyl)-5-[5-methanesulfonyl-2-(propan-2-yloxy)benzoyl]-2H 4H 5H 6H-pyrrolo[3,4-c]pyrazole]
< 100 nM | Cc1c(F)ccc(-n2cc3c(n2)CN(C(=O)c2cc(S(C)(=O)=O)ccc2OC(C)C)C3)c1F [Example 61, 2-(2 4-Difluoro-3-methylphenyl)-5-[5-methanesulfonyl-2-(propan-2-yloxy)benzoyl]-2H 4H 5H 6H-pyrrolo[3,4-c]pyrazole]
< 100 nM | CC(C)Oc1ccc(S(C)(=O)=O)cc1C(=O)N1Cc2cn(-c3cc(Cl)ccc3F)nc2C1 [Example 62, 2-(5-Chloro-2-fluorophenyl)-5-[5-methanesulfonyl-2-(propan-2-yloxy)benzoyl]-2H 4H 5H 6H-pyrrolo[3,4-c]pyrazole]
< 100 nM | CC(C)(C)COc1ccc(S(C)(=O)=O)cc1C(=O)N1Cc2cn(-c3ccccc3F)nc2C1 [Example 63, 5-[2-(2 2-Dimethylpropoxy)-5-methanesulfonylbenzoyl]-2-(2-fluorophenyl)-2H 4H 5H 6H-pyrrolo[3,4-c]pyrazole]
< 100 nM | Cc1c(F)ccc(-n2cc3c(n2)CN(C(=O)c2cc(S(C)(=O)=O)ccc2OCC(C)(C)C)C3)c1F [Example 64, 2-(2 4-Difluoro-3-methylphenyl)-5-[2-(2 2-dimethylpropoxy)-5-methanesulfonylbenzoyl]-2H 4H 5H 6H-pyrrolo[3,4-c]pyrazole]
< 100 nM | CC(C)(C)COc1ccc(S(C)(=O)=O)cc1C(=O)N1Cc2cn(-c3cc(Cl)ccc3F)nc2C1 [Example 65, 2-(5-Chloro-2-fluorophenyl)-5-[2-(2 2-dimethylpropoxy)-5-methanesulfonylbenzoyl]-2H 4H 5H 6H-pyrrolo[3,4-c]pyrazole]
< 100 nM | CC(C)COc1ccc(S(C)(=O)=O)cc1C(=O)N1Cc2cn(-c3ccccc3F)nc2C1 [Example 66, 2-(2-Fluorophenyl)-5-[5-methanesulfonyl-2-(2-methylpropoxy)benzoyl]-2H 4H 5H 6H-pyrrolo[3,4-c]pyrazole]
< 100 nM | Cc1c(F)ccc(-n2cc3c(n2)CN(C(=O)c2cc(S(C)(=O)=O)ccc2OCC(C)C)C3)c1F [Example 67, 2-(2 4-Difluoro-3-methylphenyl)-5-[5-methanesulfonyl-2-(2-methylpropoxy)benzoyl]-2H 4H 5H 6H-pyrrolo[3,4-c]pyrazole]
< 100 nM | CC(C)COc1ccc(S(C)(=O)=O)cc1C(=O)N1Cc2cn(-c3cc(Cl)ccc3F)nc2C1 [Example 68, 2-(5-Chloro-2-fluorophenyl)-5-[5-methanesulfonyl-2-(2-methylpropoxy)benzoyl]-2H 4H 5H 6H-pyrrolo[3,4-c]pyrazole]
< 100 nM | Cc1c(F)ccc(-n2cc3c(n2)CN(C(=O)c2cc(S(C)(=O)=O)ccc2N2CCC(F)(F)CC2)C3)c1F [Example 70, 1-{2-[2-(2 4-Difluoro-3-methylphenyl)-2H 4H 5H 6H-pyrrolo[3,4-c]pyrazole-5-carbonyl]-4-methanesulfonylphenyl}-4 4-difluoropiperidine]
< 100 nM | CS(=O)(=O)c1ccc(N2CCC(F)(F)CC2)c(C(=O)N2Cc3cn(-c4cc(Cl)ccc4F)nc3C2)c1 [Example 71, 1-{2-[2-(5-Chloro-2-fluorophenyl)-2H 4H 5H 6H-pyrrolo[3,4-c]pyrazole-5-carbonyl]-4-methanesulfonylphenyl}-4 4-difluoropiperidine]
< 100 nM | CCS(=O)(=O)c1ccc(O[C@@H](C)C(F)(F)F)c(C(=O)N2Cc3cn(-c4cccc(C)c4)nc3C2)c1 [Example 72, 5-[5-(Ethanesulfonyl)-2-{[(2S)-1 1 1-trifluoropropan-2-yl]oxy}benzoyl]-2-(3-methylphenyl)-2H 4H 5H 6H-pyrrolo[3,4-c]pyrazole]
< 100 nM | CCS(=O)(=O)c1ccc(OC(C)C)c(C(=O)N2Cc3cn(-c4ccccc4)nc3C2)c1 [Example 73, 5-[5-(Ethanesulfonyl)-2-(propan-2-yloxy)benzoyl]-2-phenyl-2H 4H 5H 6H-pyrrolo[3,4-c]pyrazole]
100 to 1000 nM | CCS(=O)(=O)c1ccc(OC(C)C)c(C(=O)N2Cc3cn(-c4ccccc4F)nc3C2)c1 [Example 74, 5-[5-(Ethanesulfonyl)-2-(propan-2-yloxy)benzoyl]-2-(2-fluorophenyl)-2H 4H 5H 6H-pyrrolo[3,4-c]pyrazole]
< 100 nM | C[C@H](Oc1ccc(S(C)(=O)=O)cc1C(=O)N1Cc2cn(-c3ccc(F)c(C(F)F)c3)nc2C1)C(F)(F)F [Example 75, 2-[3-(Difluoromethyl)-4-fluorophenyl]-5-(5-methanesulfonyl-2-{[(2S)-1 1 1-trifluoropropan-2-yl]oxy}benzoyl)-2H 4H 5H 6H-pyrrolo[3,4-c]pyrazole]
< 100 nM | CC(C)Oc1ccc(S(C)(=O)=O)cc1C(=O)N1Cc2cn(-c3ccc(F)c(C(F)F)c3)nc2C1 [Example 76, 2-[3-(Difluoromethyl)-4-fluorophenyl]-5-[5-methanesulfonyl-2-(propan-2-yloxy)benzoyl]-2H 4H 5H 6H-pyrrolo[3,4-c]pyrazole]
< 100 nM | CC(C)(C)COc1ccc(S(C)(=O)=O)cc1C(=O)N1Cc2cn(-c3ccc(F)c(C(F)F)c3)nc2C1 [Example 77, 2-[3-(Difluoromethyl)-4-fluorophenyl]-5-[2-(2 2-dimethylpropoxy)-5-methanesulfonylbenzoyl]-2H 4H 5H 6H-pyrrolo[3,4-e]pyrazole]
< 100 nM | CCS(=O)(=O)c1ccc(O[C@@H](C)C(F)(F)F)c(C(=O)N2Cc3cn(-c4cccc(C)c4F)nc3C2)c1 [Example 78, 5-[5-(Ethanesulfonyl)-2-{[(2S)-1 1 1-trifluoropropan-2-yl]oxy}benzoyl]-2-(2-fluoro-3-methylphenyl)-2H 4H 5H 6H-pyrrolo[3,4-c]pyrazole]
< 100 nM | CCS(=O)(=O)c1ccc(O[C@@H](C)C(F)(F)F)c(C(=O)N2Cc3cn(-c4ccc(F)c(C(F)F)c4)nc3C2)c1 [Example 79, 2-[3-(Difluoromethyl)-4-fluorophenyl]-5-[5-(ethanesulfonyl)-2-{[(2S)-1 1 1-trifluoropropan-2-yl]oxy}benzoyl]-2H 4H 5H 6H-pyrrolo[3,4-c]pyrazole]
< 100 nM | CCS(=O)(=O)c1ccc(O[C@@H](C)C(F)(F)F)c(C(=O)N2Cc3cn(-c4ccccc4F)nc3C2)c1 [Example 80, 5-[5-(Ethanesulfonyl)-2-{[(2S)-1 1 1-trifluoropropan-2-yl]oxy}benzoyl]-2-(2-fluorophenyl)-2H 4H 5H 6H-pyrrolo[3,4-c]pyrazole]
100 to 1000 nM | CCS(=O)(=O)c1ccc(OC(C)C)c(C(=O)N2Cc3cn(-c4ccc(F)cc4F)nc3C2)c1 [Example 81, 2-(2 4-Difluorophenyl)-5-[5-(ethanesulfonyl)-2-(propan-2-yloxy)benzoyl]-2H 4H 5H 6H-pyrrolo[3,4-c]pyrazole]
